We go through 1 molecule from patent US10968183B2, “Small molecule FIEL1 inhibitor in inflammatory and fibrotic lung injury” (UNIVERSITY OF PITTSBURGH—OF THE COMMONWEALTH SYSTEM OF …, priority 2015, dated 2021).

One may read the IC50 as the midpoint of a concentration-inhibition curve.

In experiment [1] the test system is DSS induced acute colonic inflammation in C57BL6 mice. In words: Dextran sulfate sodium induced acute colonic inflammation in mice. The class given is in vivo. The settings on record: 2.5% DSS in water up to 7 days; drinking water 30 ug/ml, ~5 mg/kg/d. The procedure:
C57BL6 mice were fed with water ad lib containing 2.5% dextran sulfate sodium (DSS) for up to 7 days. Mice were treated with either vehicle (control) or BC-1261 (administered into drinking water at 30 ug/ml, ˜5 mg/kg/d dosing). Colonic tissues were also analysed for TNFα, IL1 and IL6 shown in FIGS. 20E H&E staining was performed on colonic sections. The data in FIG. 20F represent n=6 mice/group, *P<0.05 versus DSS and **P<0.05 versus control. […] FIG. 20G provides pictures of the tissues at interest.
C57BL6 mice were fed with water ad lib containing 2.5% dextran sulfate sodium (DSS) for up to 7 days. Mice were treated with either vehicle (control) or BC-1261 (administered into drinking water at 30 ug/ml, ˜5 mg/kg/d dosing). Mice were then euthanized, the length of the colon and weight of the spleen were measured and graphed, shown in FIG. 20 B-D. Colonic tissues were also analysed for TNFα, IL1 and IL6 shown in FIG. 20E H&E staining was performed on colonic sections. The data in FIG. 20F represent n=6 mice/group, *P<0.05 versus DSS and **P<0.05 versus control.

For experiment [2], the system named is α-SMA expression in MRC5 cells. Description: α-SMA expression in MRC5 cells co-treated with TGFβ. The class given is cell-based, human. The procedure:
FIG. 15A. Diagram of the BC-1485 synthesis process. FIGS. 15B-15C. Docking studies of the lead compound, BC-1485, interacting with the FIEL1-HECT domain. FIG. 15D. MRC5 cells were treated with the compound at various doses; cells were also co-treated with TGFβ at 2 ng/ml. 18 h later, cells were collected and assayed for α-SMA expression. FIG. 15E. MRC5 cells were seeded in 35 mm glass bottom dishes before co-treatment with TGFβ at 2 ng/ml and BC-1480 or BC1485 at 5μM. FIG. 15F. PIAS4 protein half-life determination after BC-1480 or BC1485 treatment at 5μM for 18 h. FIG. 15G. PIAS4 and KIAA0317 mRNA analysis after BC1485 treatment for 18 h.
MLE cells were cultured in Dulbecco's Modified Eagle Medium-F12 (Gibco) supplemented with 10% fetal bovine serum (DMEM-10). 293T cells were cultured in Dulbecco's Modified Eagle Medium (Gibco) supplemented with 10% fetal bovine serum (DMEM-10). MRC5 cells were cultured in Eagle's Minimum Essential Medium (Gibco) supplemented with 10% fetal bovine serum (EMEM-10). For protein expression in MLE cells, nucleofection was used following Amaxa's protocol. For protein overexpression in 293T cells, Fugene6HD transfection reagents were used following the manufacturer's protocol. For protein expression in MRC5 cells, MRC-5 Cell Avalanche™ Transfection Reagent was used following manufacturer's protocol. Cells were treated with TGFβ at 0-2 ng/ml for 0-18 h. For FIEL1, PKCξ, or GSK3β knockdown studies in cells, scramble shRNA, KIAA0317, PKCξ, or GSK3β shRNA were used to transfect cells for 48 h. For drug treatment, compounds were solubilized in DMSO before being added to the cells for up to 18 h. Cell lysates were prepared by brief sonication in 150 mM NaCl, 50 mM Tris, 1.0 mM EDTA, 2 mM dithiothreitol, 0.025% sodium azide, and 1 mM phenylmethylsulfonyl fluoride (Buffer A) at 4° C. For half-life study, MLE cells were exposed to cycloheximide (40 μg/ml) in a time dependent manner for up to 8 h. Cells were then collected and immunoblotted.

Consider `CC(NC(=O)c1ccc(NS(=O)(=O)c2ccc3[nH]c(=O)[nH]c3c2)cc1)C(=O)N(C)C` (stereo not drawn) [BC-1485], for which the “DSS induced acute colonic inflammation” value in experiment [1] is listed as “effectively reduces”. In addition, the “inhibition of TGFβ pathway” value in experiment [2] (FIG. 15) is recorded as “inhibition of TGFβ pathway”. For the same molecule, the IC50 in experiment [2] (MRC5 cells, TGFβ 2 ng/ml, 18 h, FIG. 15D, read-out: IC50 for decrease of α-SMA expression) was about 32 nM.
